Experimental data: paper doi:10.1101/2024.12.17.628051v1 (biorxiv, 2024)
Where two headings read alike, the source gives them in different places.

Experiments:
[1] = target: T1, STRAD/MO25 dimer (His-STRAD C160 and MO25) (Homo sapiens, UniProt Q7RTN6); experiment: biochemical; settings: read-out: residual occupancy (Average)
T1 sequence (Q7RTN6 59-431): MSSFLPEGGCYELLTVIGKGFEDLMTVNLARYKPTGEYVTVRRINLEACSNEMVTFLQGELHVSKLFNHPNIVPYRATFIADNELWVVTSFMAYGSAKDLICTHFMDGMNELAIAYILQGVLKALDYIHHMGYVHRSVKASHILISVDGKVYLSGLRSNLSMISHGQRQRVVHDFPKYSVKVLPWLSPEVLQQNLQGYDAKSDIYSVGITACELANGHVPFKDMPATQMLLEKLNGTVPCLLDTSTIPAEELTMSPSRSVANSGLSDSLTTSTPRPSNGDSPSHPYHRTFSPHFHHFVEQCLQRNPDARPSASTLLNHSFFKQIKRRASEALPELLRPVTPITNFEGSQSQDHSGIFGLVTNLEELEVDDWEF
T1 sequence (Q9Y376 1-341 partner): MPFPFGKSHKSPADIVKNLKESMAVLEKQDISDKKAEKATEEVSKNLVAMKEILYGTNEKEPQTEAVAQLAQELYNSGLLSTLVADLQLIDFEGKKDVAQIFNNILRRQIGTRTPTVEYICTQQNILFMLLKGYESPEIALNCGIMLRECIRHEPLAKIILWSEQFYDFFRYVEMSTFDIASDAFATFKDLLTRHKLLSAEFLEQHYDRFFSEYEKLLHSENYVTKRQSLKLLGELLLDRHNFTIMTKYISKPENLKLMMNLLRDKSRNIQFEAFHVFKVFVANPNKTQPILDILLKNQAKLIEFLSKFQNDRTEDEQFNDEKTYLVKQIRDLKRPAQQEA

[2] = target: T1, STRAD/MO25 dimer (His-STRAD C160 and MO25); experiment: TNP-ATP fluorescence displacement; type: binding; settings: 50 μM compound, 5 μM STRAD-MO25, 5 μM TNP-ATP, pH 7.5, room temperature
[3] = target: T1, STRAD/MO25 dimer (His-STRAD C160 and MO25); experiment: biochemical; settings: read-out: residual occupancy (Average); remark: listed apart in the source
[4] = target: T1, STRAD/MO25 dimer (His-STRAD C160 and MO25); experiment: TNP-ATP fluorescence displacement; type: binding
LKB1/STRAD/MO25 trimer = target: T2, LKB1/STRAD/MO25 trimer (Homo sapiens, UniProt Q7RTN6); experiment: Caliper mobility-shift kinase assay, Fam-LKBtide; type: biochemical
T2 sequence (Q7RTN6 1-431): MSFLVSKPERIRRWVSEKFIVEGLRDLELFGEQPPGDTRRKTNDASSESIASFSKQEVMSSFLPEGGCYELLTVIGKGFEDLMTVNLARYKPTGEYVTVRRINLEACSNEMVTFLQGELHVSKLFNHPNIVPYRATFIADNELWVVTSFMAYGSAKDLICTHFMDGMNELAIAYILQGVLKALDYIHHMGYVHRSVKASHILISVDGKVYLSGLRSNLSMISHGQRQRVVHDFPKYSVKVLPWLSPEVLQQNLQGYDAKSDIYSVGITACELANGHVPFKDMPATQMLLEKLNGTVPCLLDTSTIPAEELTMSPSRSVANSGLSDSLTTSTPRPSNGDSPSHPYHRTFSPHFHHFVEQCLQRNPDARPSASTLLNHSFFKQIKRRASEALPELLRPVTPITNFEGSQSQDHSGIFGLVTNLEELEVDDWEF
T2 sequence (Q15831 1-430 partner): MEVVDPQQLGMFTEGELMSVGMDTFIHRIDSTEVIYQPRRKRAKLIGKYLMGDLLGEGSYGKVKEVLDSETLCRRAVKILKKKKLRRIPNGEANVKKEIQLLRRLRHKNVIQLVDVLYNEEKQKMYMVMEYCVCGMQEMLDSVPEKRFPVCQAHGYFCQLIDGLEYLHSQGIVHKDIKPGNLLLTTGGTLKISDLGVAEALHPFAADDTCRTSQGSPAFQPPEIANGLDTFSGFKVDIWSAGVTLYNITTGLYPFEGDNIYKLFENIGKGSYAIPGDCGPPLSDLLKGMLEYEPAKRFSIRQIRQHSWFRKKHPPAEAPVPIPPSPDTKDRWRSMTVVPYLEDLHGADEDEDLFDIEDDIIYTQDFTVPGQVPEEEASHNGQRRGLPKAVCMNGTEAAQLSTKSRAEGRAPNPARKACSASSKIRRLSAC
T2 sequence (Q9Y376 1-341 partner): T1 sequence (Q9Y376 1-341 partner)

SMILES | Residual Occupancy (Average) at 50 μM [2] [fraction] | remaining activity at 50 µM [3] [%] | also measured
N#CC(C#N)=Cc1ccc(O)c(O)c1 [AG-18] |  |  | remaining activity at 50 µM [1]: 54%
COc1cc(N2CCC(N)CC2)ccc1Nc1ncc(Cl)c(-c2c[nH]c3ccccc23)n1 [AZD3463] | 0.33 ± 0.02 |  | 
CCOc1cc(C(=O)N2CCC(N3CCN(C)CC3)CC2)ccc1Nc1ncc2c(n1)N(C1CCCC1)c1ccccc1C(=O)N2C [ERK5-IN-1] | 0.46 ± 0.02 |  | 
COc1cc(Nc2ncc(F)c(Nc3ccc4c(n3)N(COP(=O)(O)O)C(=O)C(C)(C)O4)n2)cc(OC)c1OC [Fostamatinib (R788)] |  | 52 | 
Cc1[nH]c2ccccc2c1C1=C(NCCc2ccc(F)cc2)C(=O)N(C)C1=O [IM-12] |  | 58 | 
CCOP(=O)(COc1cccc(-c2cn([C@H]3C[C@@H](CN4CCC4)C3)c3ncnc(N)c23)c1)OCC [SMALS-323] |  |  | EC50 (LKB1/STRAD/MO25 trimer): 480 nM
CCOP(C)(=O)COc1cccc(-c2cn([C@H]3C[C@@H](CN4CCC4)C3)c3ncnc(N)c23)c1 (stereo partly shown) [SMALS-357] |  |  | EC50 (LKB1/STRAD/MO25 trimer): 5200 nM

Second part, led by results:

Residual Occupancy (Average) at 50 μM [2] [fraction] | remaining activity at 50 µM [3] [%] | SMILES | also measured
0.40 ± 0.03 |  | Cc1cc(Nc2ncc(Cl)c(Nc3ccccc3S(=O)(=O)C(C)C)n2)c(OC(C)C)cc1C1CCNCC1 [LDK378] | 
 | 19 | Nc1ncnc2c1c(-c1cccc(OCc3ccccc3)c1)cn2[C@H]1C[C@@H](CN2CCC2)C1 [NVP-AEW541] | IC50 [4]: 2400 nM
 | 56 | Cc1c[nH]c2nc(Nc3ccc(N4CCN(C)CC4)c(F)c3)nc(-c3cccc(CC#N)c3)c12 [SGI-7079] | 
 | 54 | N#C/C(=C(/N)Sc1ccc(N)cc1)c1ccccc1C(F)(F)F [SL-327] | 
0.36 ± 0.02 |  | CN1CCN(CCOc2cc(OC3CCOCC3)c3c(Nc4c(Cl)ccc5c4OCO5)ncnc3c2)CC1 [Saracatinib] | 
